Consider two molecules from patent US20130261146A1, “NITRIC OXIDE AND ITS BIOMEDICAL SIGNIFICANCE” (The Research Foundation of State University of New York, priority 2010, published 2013).

For one assay, the system named is E. coli bacteria. The experiment in a line: Inhibition of bacterial growth in culture. Type of assay: cell-based. The settings on record: E. coli incubated 5 and 24 hours at 37° C, streaked on LB-agar overnight. The method, then:
Example 9 illustrates the anti-microbial effects of extracts including the active chemical agents on cells. A dried, powdered, formulation of a 1:1 mixture of the wheat grass extract and white willow bark extract prepared in Example 1 above was tested for its ability to inhibit bacterial growth in culture. The formulation was reconstituted in 10 ml of LB broth (Amersham Biosciences, Inc.). The broth was then inoculated with E. coli bacteria and incubated for 5 and 24 hours at 37° C. 20 μl of the cultures were streaked on LB-agar plates and incubated overnight at 37° C. […] An additional control experiment was conducted with the known antibacterial agent, SNAP. One μg/ml SNAP was added to LB broth. The broth was then inoculated with E. coli bacteria and incubated for 5 and 24 hours at 37° C. 20 μl of the cultures were streaked on LB-agar plates and incubated overnight at 37° C. Bacterial growth was decreased in the SNAP culture at 5 and 24 hours, as compared to the control.

Assay [1] deals with SK-N-MC (ATCC # HBT-10) cells. Description: NO determination of SK-N-MC cells treated with plant extractions. The following applies: 6 mg of crude extraction. Type of assay: cell-based. The procedure:
Employing the isolation and purification techniques described above, a variety of herbaceous plants were analyzed for their ability to release cNOS—derived nitric oxide in the pedal ganglia and in publicly available SK-N-MC (ATCC # HBT-10) and PC-12 (ATCC # CRL 1721) cells. In Table I, a plus sign indicates detection of at least 1 nM nitric oxide. […] In Table II, results in the SK-N-MC cell line are set forth; the concentration of plant material used and the quantity of NO detected is indicated. […] In Table III, results are set forth for the identical procedures performed using the ganglia cell line. The types of plant materials employed are indicated, for example flowers, leaves, roots, rhizomes, stems, bark. Where not specified, leaves were employed.

For the molecule `CC(=O)NC(C(=O)O)C(C)(C)SN=O` (racemic) [SNAP, S-nitroso-N-acetyl-DL-penicillamine], the “bacterial growth versus control (LB broth alone)” value with E. coli bacteria was “decreased”.

As for `O=c1c(O)c(-c2ccc(O)c(O)c2)oc2cc(O)cc(O)c12` [Quercetine], the “Results (nM), NO determination of SK-N-MC cells” value in assay [1] was determined as 14 nM.
